Results reported in patent publication US8426447B2, “Spiro-tricyclic ring compounds as beta-secretase modulators and methods of use” (Amgen Inc., priority 2008, dated 2013).
pIC50: −log10 of the molar value.

Experiments:
[1] = biological target: T1, BACE1 (Homo sapiens, UniProt P56817); assay: In Vitro BACE Cell-based Assay (HEK cell assay): Aβ40 in conditioned medium of cells stably expressing Amyloid Precursor Protein, sandwich ELISA; details: read-out: HEK cell assay; for IC50: Table III, IC50's in uM ranges
Method in brief: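 First, APP-stable cells grow 24 h at 37° C., 5% CO2. Next, test compounds are added for 24 h (10 doses, 0.1% DMSO). Finally, medium Aβ40 is determined by pAb40/6E10 sandwich ELISA with Europium TRF, and IC50 is calculated.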

[2] = biological target: T1, BACE1; assay: In Vitro Enzymatic BACE FRET (Fluorescence Resonance Energy Transfer) Assay; type: biochemical; details: read-out: BACE1 FRET assay; for IC50: Table III, IC50's in uM ranges
Method in brief: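 Buffer: 0.05 M acetate, pH 4.2, 10% DMSO final, 100 uM genapol. Start: FRET substrate 50 nM. Incubation 1 h. Stop: Tris to neutral pH. Read: fluorescence.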

[3] = HEK cell-based assay, Aβ40 in conditioned medium, IC50 class symbols
[4] = in vitro BACE FRET enzyme assay, IC50 class symbols

T1 sequence (P56817 46-501, species assumed): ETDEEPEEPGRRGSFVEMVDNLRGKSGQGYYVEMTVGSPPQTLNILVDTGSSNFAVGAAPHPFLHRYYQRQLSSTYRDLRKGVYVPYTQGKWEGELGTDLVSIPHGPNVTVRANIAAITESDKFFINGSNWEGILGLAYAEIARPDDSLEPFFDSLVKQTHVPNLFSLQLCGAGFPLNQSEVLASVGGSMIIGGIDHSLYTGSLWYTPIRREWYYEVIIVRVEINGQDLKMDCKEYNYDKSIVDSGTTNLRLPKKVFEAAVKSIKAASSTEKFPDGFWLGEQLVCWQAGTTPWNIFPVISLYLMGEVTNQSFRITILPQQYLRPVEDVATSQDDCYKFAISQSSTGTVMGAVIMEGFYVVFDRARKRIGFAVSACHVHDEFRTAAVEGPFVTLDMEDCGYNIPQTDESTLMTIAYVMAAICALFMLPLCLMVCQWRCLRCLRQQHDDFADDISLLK

Row | Structure (SMILES) | pIC50 [2] | pIC50 ([1]; Table IV, class symbols) | pIC50 ([2]; Table IV, class symbols) | other results
1 | COc1ccc2c(c1)C1(COC(N)=N1)c1cc(-c3ccccc3C)ccc1O2 (stereo not shown) [Example 32, 2′-methoxy-7′-(2-methylphenyl)spiro[1,3-oxazole-4,9′-xanthen]-2-amine] |  |  |  | pIC50 ([1]; Table 1, Aβ40, 24 h incubation): 5.30 to 6.00; pIC50 ([2]; Table 1): < 5.30
2 | COCC[C@@H]1CN(c2ccc3c(c2)[C@]2(COC(N)=N2)c2cc(-c4cccnc4)ccc2O3)CCO1 [compound 362] |  |  |  | pIC50 [1, 3]: 6.00 to 7.00; pIC50 [2, 4]: 6.00 to 7.00
3 | NC1=N[C@]2(CO1)c1cc(C3=CCOCC3)ccc1Oc1cc(F)c(-c3cccnc3)cc12 [compound 492] | > 7.00 |  |  | pIC50 ([1]; HEK cells): > 7.00
4 | COc1ccc2c(c1)C1(COC(N)=N1)c1cc(-c3cccc(OC(F)(F)F)c3)ccc1O2 (stereo not shown) [Example 22, 2′-methoxy-7′-(3-(trifluoromethoxy)phenyl)spiro[1,3-oxazole-4,9′-xanthen]-2-amine] |  |  |  | pIC50 ([1]; Table 1, Aβ40, 24 h incubation): 5.30 to 6.00; pIC50 ([2]; Table 1): 5.30 to 6.00
5 | COC(C)(C)COc1cc2c(cc1F)Oc1ccc(-c3cccnc3)cc1[C@@]21COC(N)=N1 [compound 544] |  | > 7.00 | > 7.00 | 
6 | CC(C)(C)OC(=O)/C=C/c1ccc2c(c1)[C@]1(COC(N)=N1)c1cc(Br)ccc1O2 [compound 996] | < 5.30 |  |  | pIC50 [1]: < 5.30
7 | CC(C)(C)COc1ccc2c(c1)[C@]1(COC(N)=N1)c1cc(C3=CCCC3)ccc1O2 [compound 731] | 6.00 to 7.00 |  |  | pIC50 [1]: 5.30 to 6.00
8 | COC(C)(C)COc1cnc2c(c1)[C@@]1(COC(N)=N1)c1cc(-c3ccccc3)ccc1O2 [compound 349] |  |  |  | pIC50 [1, 3]: 5.30 to 6.00; pIC50 [2, 4]: 6.00 to 7.00
9 | NC1=N[C@@]2(CO1)c1cc(Br)ccc1Oc1cnc(Cl)cc12 [compound 548] |  | < 5.30 | < 5.30 | 
10 | COc1ccc2c(c1)[C@@]1(COC(N)=N1)c1c(ccc(-c3cncnc3)c1F)O2 [compound 816] |  | < 5.30 | < 5.30 | 
11 | CC(C)(C)COc1ccc2c(c1)[C@@]1(COC(N)=N1)c1cc(-c3cccnc3F)cnc1O2 [compound 870] |  | > 7.00 | > 7.00 | 
12 | NC1=N[C@]2(CO1)c1cc(Oc3ccccn3)ccc1Oc1ccc(-c3cccnc3)cc12 [compound 207] |  |  |  | IC50 [1]: 0.1 to 1 µM; IC50 [2]: 0.1 to 1 µM
13 | CC(C)(O)C#Cc1cnc2c(c1)[C@]1(COC(N)=N1)c1cc(-c3ccccc3)ccc1O2 [compound 647] |  | > 7.00 | > 7.00 | 
14 | CC(C)(C)COc1ccc2c(c1)C1(COC(N)=N1)c1cc(Br)ccc1O2 (stereo not shown) [Example 57, 2′-bromo-7′-(2,2-dimethylpropoxy)spiro[1,3-oxazole-4,9′-xanthen]-2-amine] |  |  |  | pIC50 ([1]; Table II, Aβ40, 24 h incubation): 5.30 to 6.00; pIC50 ([2]; Table II): 6.00 to 7.00
15 | NC1=NC2(CO1)c1cnc(Cl)cc1Oc1ccc(-c3cncnc3)cc12 (stereo not shown) [compound 852] |  | < 5.30 | 5.30 to 6.00 | 
16 | COc1ccc2c(c1)[C@@]1(COC(N)=N1)c1cc(-c3cncnc3)cnc1O2 [compound 669] | 5.30 to 6.00 |  |  | pIC50 [1]: 5.30 to 6.00
17 | CCOc1ccc(-c2cnc3c(c2)[C@]2(COC(N)=N2)c2cc(OC)ccc2O3)cn1 [compound 667] | 6.00 to 7.00 |  |  | pIC50 [1]: 6.00 to 7.00
18 | Cc1nc(-c2ccc3c(c2)[C@]2(COC(N)=N2)c2cc(-c4cccnc4)ccc2O3)cs1 [compound 679] | > 7.00 |  |  | pIC50 [1]: > 7.00
19 | CC1(COc2ccc3c(c2)[C@@]2(COC(N)=N2)c2cc(-c4cccc(F)c4)cnc2O3)COC1 [compound 774] | > 7.00 |  |  | pIC50 [1]: > 7.00
20 | CC(C)(O)C#Cc1cnc2c(c1)[C@]1(COC(N)=N1)c1cc(-c3ccc(F)nc3)ccc1O2 [compound 794] |  | > 7.00 | > 7.00 | 
21 | CC(C)(F)COc1cnc2c(c1)[C@]1(COC(N)=N1)c1cc(-c3ccccc3)ccc1O2 [compound 452] | > 7.00 |  |  | pIC50 ([1]; HEK cells): 6.00 to 7.00
22 | Cn1cncc1-c1ccc2c(c1)[C@]1(COC(N)=N1)c1cc(OCC(C)(C)C)ccc1O2 [compound 187] |  |  |  | IC50 [1]: 1 to 5 µM; IC50 [2]: 1 to 5 µM
23 | NC1=N[C@]2(CO1)c1cc(-c3cccnc3)ccc1Oc1ncccc12 [compound 635] |  | 6.00 to 7.00 | 6.00 to 7.00 | 
24 | COc1ccc2c(c1)[C@]1(COC(N)=N1)c1cc(NC(=O)[C@@H](C)OC)ccc1O2 [compound 536] |  | 6.00 to 7.00 | 6.00 to 7.00 | 
25 | COc1ccc2c(c1)[C@]1(COC(N)=N1)c1cc(Br)cc(F)c1O2 [compound 377] |  |  |  | pIC50 [1, 3]: 5.30 to 6.00; pIC50 [2, 4]: < 5.30
26 | N#Cc1cccc(-c2ccc3c(c2)[C@]2(COC(N)=N2)c2cc(-c4cccnc4)ccc2O3)c1 [compound 961] | > 7.00 |  |  | pIC50 [1]: > 7.00
